Measurements reported in patent US4900730A, “Preparation which promotes the absorption of peptides” (priority 1981, dated 1990).
No end group written: not given here.

What was measured:
[1] = Rectal circulation with fatty acids as promoters (Example 15, Example 1 repeated)
Description: Absorption effects under conditions with various tonicities were examined.
The experiment was conducted in the following manner.
(The units in the Table are percents.)

[2] = Penicillin suppositories, concentration in plasma (Example 34); type: in vivo, S.D. male rats; conditions: Four fold tonicity suppository with 3.6% NaCl and 5% sodium adipate, intrarectal
Description: The dispersion was filled in a silicone tube (inner diameter 2.5 mm) to produce a rod-like suppository of 50 mg as a control suppository.
These suppositories were intrarectally administered to S.D. male rats (weighing about 250 g) and the concentration of Carbenicillin in blood was measured.
The concentration of Carbenicillin in blood was determined on sampled plasma by the use of Sarcina luteus ATCC 9341 in accordance with the conventional method.
The same experiment was effected on Dicloxacillin.Na.

[3] = rat, in vivo
Description: (§1) The experiment was conducted in the following manner. Sprague Dawley rats (male), weighing 200 to 300 g, were narcotized (after fast for 20 hours) with pentobarbital (50 mg/kg) and thereafter subjected to hypoabdominal incision for a first cannulation at a position about 1.5 cm from anus and also another cannulation at a position 5 cm above the first cannulation. Subsequently, the rectum was internally washed with about 50 ml of isotonic sodium chloride solution kept at 38° C., and samples each of 10 ml were circulated through rectum for 5 minutes (2 ml/minute) to make the concentration in the system constant. Then, 5 ml of each sample was circulated at a flow rate of 2 ml/minute, and samples each of 0.05 ml were collected at intervals of 10 minutes from 0 minute. Each sample was diluted to 5 ml with distilled water and the quantity of medicine disappeared by absorption was determined by UV spectrophotometer.
Quantities of 0.5 W/W % Cefmetazole.Na disappeared by absorption under isotonic and three-fold tonic conditions were determined, respectively, using sodium malate, sodium pyruvate, sodium phosphenolpyruvate, sodium β-hydroxybutyrate, sodium β-hydroxy glutarate, and sodium 2-phospho-D-glycerate.

[4] = Cephalothin concentration in blood after injection through anus (Example 6); type: in vivo, rat; conditions: with 6% sodium chloride and 1.0% disodium EDTA mono-ethylate vs 2% Cephalothin.Na control
Description: Using 2% solution of Cephalothin.Na (in 0.1M Tris-HCl buffer, pH 8.0) as Control, an injection agent was prepared by adding 6% sodium chloride and 1.0% disodium EDTA mono-ethylate to said solution.

[5] = Rectal circulation: Cephalothin disappeared by absorption (Examples 10-14, 16-18); conditions: rat, in vivo
Description: The experiments were conducted similarly as in Example 1. […] Each sample was diluted and the quantity of Cephalothin disappeared was determined by UV-spectrophotometer of high-speed liquid chromatography.

[6] = rabbit, in vivo, 250 mg/kg
[7] = rat, in vivo; remark: listed apart in the source
Description: as §1

[8] = Calcium concentration after intrarectal calcitonin preparation, relative effect (Example 8); type: in vivo, SD rats; conditions: after one hour, CVP and CT set at standard value of 1
[9] = Table 9, fatty acid 0.1 W/V %, Example 1 repeated, X 1
[10] = Table 9, fatty acid 0.1 W/V %, Example 1 repeated, X 4

For `CCCC(=O)O` [Butyric acid, butyric acid], the “medicine disappeared by absorption, Osmotic pressure X 1” value ([1]; rat, in vivo) was 9.9 percents, the “medicine disappeared by absorption, Osmotic pressure X 2” value ([1]; rat, in vivo) was 17.1 percents and the “medicine disappeared by absorption, Osmotic pressure X 4” value ([1]; rat, in vivo) was 21.0 percents.
For `CC1(C)S[C@@H]2[C@H](NC(=O)C(C(=O)O)c3ccccc3)C(=O)N2[C@H]1C(=O)O` (stereo partly shown) [Carbenicillin.Na], the “Concentration in plasma 5 min.” value [2] was 5000 ng/mL, the “Concentration in plasma 10 min.” value [2] was 14700 ng/mL and the “Concentration in plasma 20 min.” value [2] was 11500 ng/mL. For the same compound, the “Concentration in plasma 30 min.” value [2] was 8900 ng/mL, the “Concentration in plasma 60 min.” value [2] was 5100 ng/mL and the “Concentration in plasma 90 min.” value [2] was 3100 ng/mL. The “Concentration in plasma 120 min.” value [2] was 1600 ng/mL.
In the case of `CO[C@@]1(NC(=O)CSCC#N)C(=O)N2C(C(=O)O)=C(CSc3nnnn3C)CS[C@@H]21` [Cefmetazole.Na], the “quantity of Cefmetazole.Na disappeared by absorption” value [3] is reported as “practically negligible”.
With `CC(=O)OCC1=C(C(=O)O)N2C(=O)[C@@H](NC(=O)Cc3cccs3)[C@H]2SC1` [Cephalothin.Na, reference compound] the concentrations in blood [4] was “significantly increased”, the “Cephalothin disappeared by absorption, Osmotic pressure (%) X 1” value [5] was 1.2% and the “Cephalothin disappeared by absorption, Osmotic pressure (%) X 2” value [5] was 1.6%. The “Cephalothin disappeared by absorption, Osmotic pressure (%) X 4” value [5] was 3.1%, the “Cephalothin disappeared by absorption, Osmotic pressure X 1” value [5] was 1.2 percents and the “Cephalothin disappeared by absorption, Osmotic pressure X 2” value [5] was 1.6 percents. The “Cephalothin disappeared by absorption, Osmotic pressure X 4” value [5] was 3.1 percents.
With `Cc1onc(-c2c(Cl)cccc2Cl)c1C(=O)N[C@@H]1C(=O)N2[C@@H]1SC(C)(C)[C@@H]2C(=O)O` [Dicloxacillin.Na] the “Concentration in plasma 5 min.” value [2] was 4500 ng/mL, the “Concentration in plasma 10 min.” value [2] was 15400 ng/mL and the “Concentration in plasma 20 min.” value [2] was 10500 ng/mL. For the same compound, the “Concentration in plasma 30 min.” value [2] was 7500 ng/mL, the “Concentration in plasma 60 min.” value [2] was 4600 ng/mL and the “Concentration in plasma 90 min.” value [2] was 2900 ng/mL. The “Concentration in plasma 120 min.” value [2] was 900 ng/mL.
For `CCCCCCCCCC(=O)[O-].[Na+]` [Sodium caprate, sodium caprate], the “medicine disappeared by absorption, Osmotic pressure X 1” value [1, 9] was 5.2 percents and the “medicine disappeared by absorption, Osmotic pressure X 4” value [1, 10] was 8.6 percents.
In the case of `CCCCCC(=O)[O-].[Na+]` [Sodium caproate, sodium caproate], the “medicine disappeared by absorption, Osmotic pressure X 1” value [1, 9] is reported as 10.4 percents, the “medicine disappeared by absorption, Osmotic pressure X 2” value ([1]; Table 9, fatty acid 0.1 W/V %, Example 1 repeated, X 2) is reported as 14.7 percents and the “medicine disappeared by absorption, Osmotic pressure X 4” value [1, 10] is reported as 17.2 percents.
In the case of `CCCCCCCC(=O)[O-].[Na+]` [Sodium caprylate, sodium caprylate], the “medicine disappeared by absorption, Osmotic pressure X 1” value [1, 9] is reported as 5.8 percents and the “medicine disappeared by absorption, Osmotic pressure X 4” value [1, 10] is reported as 13.0 percents.
With `CCCCCCCCCCCC(=O)[O-].[Na+]` [Sodium laurate, sodium laurate] the “medicine disappeared by absorption, Osmotic pressure X 1” value [1, 9] was 3.9 percents and the “medicine disappeared by absorption, Osmotic pressure X 4” value [1, 10] was 6.5 percents.
With “Colistin methane sulfonate sodium [Colistin methanesulfonate sodium]” the “Excreted amount in urine (0-6 hr, %)” value [6] was 1.0%.
For Polymyxin B, the “Excreted amount in urine (0-6 hr, %)” value [6] was 0.8%.
For Tuberactinomycin, the absorptions through rectum [7] was “increased by the presence of EDTA.2Na and sodium chloride”.
For “calcitonin (CGNLSTCMLGTYTQDFNKFHTFPQTAIGVGAP; ends and bridges not checked; cysteine pairing not given here; UniProt P01258 85-116, looked up) [CT]”, the “relative effect on calcium concentration, Isotonic” value ([8]; glucose 0.25M) was 1, the “relative effect on calcium concentration, 6-fold tonic” value ([8]; glucose 1.5M) was 1.67 and the “relative effect on calcium concentration, 3-fold tonic” value ([8]; glucose […]) was 1.05.
